Counter-ions that a name gives are not always drawn.
Experiments:
BB (non-selective) = assay: Radioligand binding; parameters: species or system rat; conditions: 100 μM
Method: (§1) Radioligand binding. Radioligand binding assays were performed at Eurofins CEREP (France). The results are expressed as a percent of control specific binding (measured specific binding*100/control specific binding) and as a percent inhibition of control specific binding (100-(measured specific binding*100)/control specific binding) obtained in the presence of the test compounds. The IC50 values (concentration causing a half-maximal inhibition of control specific binding) and Hill coefficients (nH) were determined by non-linear regression analysis of the competition curves generated with mean replicate values using Hill equation curve fitting (Y = D + [A-D]/[1 + (C/C50)^nH], where Y = specific binding, A = left asymptote of the curve, D = right asymptote of the curve, C = compound concentration, C50 = IC50, and nH = slope factor). This analysis was performed using software developed at Cerep (Hill software) and validated by comparison with data generated by the commercial software SigmaPlot® 4.0 for Windows® (© 1997 by SPSS Inc.). The inhibition constants (Ki) were calculated using the Cheng Prusoff equation (Ki = IC50/[1 + L/KD], where L = concentration of radioligand in the assay, and KD = affinity of the radioligand for the receptor). A scatchard plot is used to determine the Kd.

Cl- channel (GABA-gated) = assay: Radioligand binding; parameters: species or system rat; conditions: 100 μM
Method: as §1

GABA (non-selective) = assay: Radioligand binding; parameters: species or system rat; conditions: 100 μM
Method: as §1

KV channel = assay: Radioligand binding; parameters: species or system rat; conditions: 100 μM
Method: as §1

P2X = assay: Radioligand binding; parameters: species or system rat; conditions: 100 μM
Method: as §1

P2Y = assay: Radioligand binding; parameters: species or system rat; conditions: 100 μM
Method: as §1

PCP = assay: Radioligand binding; parameters: species or system rat; conditions: 100 μM
Method: as §1

SKCa channel = assay: Radioligand binding; parameters: species or system rat; conditions: 100 μM
Method: as §1

Frings mice = Frings mice sound-induced seizures; type: in vivo; conditions: ip
mice [1] = assay: Bicuculline-induced seizures; type: in vivo; conditions: ip
mice [2] = assay: Rotarod test (neurotoxicity); type: in vivo; conditions: ip, […];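 also: in vivo neurotoxicity screen run within the NIH Epilepsy Therapy Screening Program (ETSP, formerly Anticonvulsant Screening Program)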
Method: (§6) The assays were carried out within the Epilepsy Therapy Screening Program (ETSP, previously known as the Anticonvulsant Screening Program, ASP), Epilepsy Branch, National Institute of Neurological and Communicative Disorders and Stroke, National Institutes of Health in Rockville, MD, USA [23].
(§7) The obtained compounds were screened for antiseizure activity and neurotoxicity in vivo within the Epilepsy Therapy Screening Program (ETSP, previously known as the Anticonvulsant Screening Program, ASP), Epilepsy Branch, National Institute of Neurological and Communicative Disorders and Stroke, National Institutes of Health in Rockville, MD, USA [23].

CYP2D6 = target: T1, CYP2D6 (Homo sapiens, UniProt P10635); assay: Human cytochrome P450 inhibition (human liver microsomes); type: in vitro ADME
T1 construct: from tissue; host or cells: human liver microsomes
Method: (§2) The selective reactions utilized for each enzyme were as follows: CYP1A2—phenacetin deethylation, CYP2A6—coumarin 7-hydroxylation, CYP2B6—7-ethoxy-4-trifluoromethyl coumarin O-deethylation, CYP2C9—diclofenac 4-hydroxylation, CYP2C19—S-mephenytoin 4-hydroxylation, CYP2D6—bufuralol 1’-hydroxylation, CYP2E1—chlorzoxazone 6-hydroxylation, CYP3A4—testosterone 6β-hydroxylation. For inhibitory evaluation, human liver microsomes and the tested compound (added in methanol as a solvent) were incubated under aerobic conditions with cytochrome P450 isozyme-selective substrates and excess NADPH at 37 °C. Incubations were for time periods over which the reaction in the absence of the compound, were determined to be linear, and proportional to the protein concentration. The human liver microsomes used were selected from the bank of those commercially available to be especially rich in the amount of the cytochrome P450 isozyme under investigation. However, it is important to note that the microsomes contained all the other isozymes in addition, and if reaction/substrate was less than specific, the other isozymes may have contributed to a minor extent to the enzyme activity determined. Following incubation, the reaction was terminated, an internal standard added, the metabolic products extracted and separated by reverse phase HPLC. Each assay was performed in duplicate, and the mean value calculated. The HPLC elutions were monitored by UV absorbance for all CYP reactions except those for CYP2A6, CYP2B6 and CYP2D6 where fluorescence monitoring was employed. Quantification was by comparison with authentic metabolites.

CYP2E1 = target: T2, CYP2E1 (Homo sapiens, UniProt P05181); assay: as above; type: in vitro ADME
T2 construct: The human liver microsomes used were selected from the bank of those commercially available; from tissue; host or cells: human liver microsomes
Method: as §2

[3] = tested on: CYP3A1 (pregnane X receptor); assay: In vitro metabolic gene induction studies; type: cell-based, rat
Method: Test 28 - In Vitro Metabolic Gene lnduction Studies
:.!,iIir:- i- :: ar!-'{}-: i
Solvent Code: DMSO Solvent Prep: Unit: uM
(§3) Cell line source: Puracyp Molecular 257.7590
Date Staded: 05+eb-20'10 Date Completed: 15-Feb-2010 Weight:
Reference: Lamb bool#8 pg. 77 […]
lsoform Code: CYP3A1 Cell line: RPXR lnduc60n mechanism:pregnane X receptor
(§4) Concentration lnduction Cell […]
Note: Box checked if data is significantty different.
Max induction 2 fold @ 200uM
(calculated): signlficant decrease in vlabllity at this conc€nbaffon in vitro.
(§5) (1 picture or pasted object on this page, not shown here)

[4] = tested on: P-glycoprotein (pregnane X receptor); assay: In vitro metabolic gene induction studies; type: cell-based, human; conditions: up to 500 uM
From the text: Test 28 - In Vitro Metabolic Gene Induction Studies
Solventcode: DMSO Solvent Prep: Unit: uM
as §3
Date Started: O5+eb-2O10 Date Completed: 15+eb-201O Weight:
Reference: Lamb book#8 pg.77 […]
lsoform Code: P{lycoprotein cell line: MDRI.C
Induc0on mechanism: pregnane X receptor
as §4
Note: 8ox ifdata is different.
. {calculated): slight Induotion (under tlffo fold) in vitro.
The highest response was less than that seen with 1ouM rifampicin.
as §5

[5] = Rotarod test (neurotoxicity); type: in vivo, mice; conditions: mouse, in vivo; mice, ip, 0.25 h;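 also: in vivo neurotoxicity screen run within the NIH Epilepsy Therapy Screening Program (ETSP, formerly Anticonvulsant Screening Program)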
Method: as §6, §7

mice [6] = assay: Hot plate test; type: in vivo
Method: The hot plate test was performed as previously described. The mice were ip pre-treated 30 min before experiment either with the compound, dissolved in saline (at doses 10, 30 and 100 mg/kg) or vehicle and were placed on a hot plate set at 55 °C (Hot plate, Omega 2A, Poland). Latency to nocifensive reaction (hind paw licking or jumping) of mice was recorded. The mouse was removed from the plate immediately upon licking a hind paw/jumping or if no response occurred within 60 s (cut-off).

[7] = target: T3, hNav1.8/beta3 sodium channel (Homo sapiens, UniProt Q9Y5Y9); assay: Nav channel electrophysiology (IonWorks Quattro); type: cell-based
T3 construct: host or cells: CHO cells
T3 sequence (Q9Y5Y9 whole entry): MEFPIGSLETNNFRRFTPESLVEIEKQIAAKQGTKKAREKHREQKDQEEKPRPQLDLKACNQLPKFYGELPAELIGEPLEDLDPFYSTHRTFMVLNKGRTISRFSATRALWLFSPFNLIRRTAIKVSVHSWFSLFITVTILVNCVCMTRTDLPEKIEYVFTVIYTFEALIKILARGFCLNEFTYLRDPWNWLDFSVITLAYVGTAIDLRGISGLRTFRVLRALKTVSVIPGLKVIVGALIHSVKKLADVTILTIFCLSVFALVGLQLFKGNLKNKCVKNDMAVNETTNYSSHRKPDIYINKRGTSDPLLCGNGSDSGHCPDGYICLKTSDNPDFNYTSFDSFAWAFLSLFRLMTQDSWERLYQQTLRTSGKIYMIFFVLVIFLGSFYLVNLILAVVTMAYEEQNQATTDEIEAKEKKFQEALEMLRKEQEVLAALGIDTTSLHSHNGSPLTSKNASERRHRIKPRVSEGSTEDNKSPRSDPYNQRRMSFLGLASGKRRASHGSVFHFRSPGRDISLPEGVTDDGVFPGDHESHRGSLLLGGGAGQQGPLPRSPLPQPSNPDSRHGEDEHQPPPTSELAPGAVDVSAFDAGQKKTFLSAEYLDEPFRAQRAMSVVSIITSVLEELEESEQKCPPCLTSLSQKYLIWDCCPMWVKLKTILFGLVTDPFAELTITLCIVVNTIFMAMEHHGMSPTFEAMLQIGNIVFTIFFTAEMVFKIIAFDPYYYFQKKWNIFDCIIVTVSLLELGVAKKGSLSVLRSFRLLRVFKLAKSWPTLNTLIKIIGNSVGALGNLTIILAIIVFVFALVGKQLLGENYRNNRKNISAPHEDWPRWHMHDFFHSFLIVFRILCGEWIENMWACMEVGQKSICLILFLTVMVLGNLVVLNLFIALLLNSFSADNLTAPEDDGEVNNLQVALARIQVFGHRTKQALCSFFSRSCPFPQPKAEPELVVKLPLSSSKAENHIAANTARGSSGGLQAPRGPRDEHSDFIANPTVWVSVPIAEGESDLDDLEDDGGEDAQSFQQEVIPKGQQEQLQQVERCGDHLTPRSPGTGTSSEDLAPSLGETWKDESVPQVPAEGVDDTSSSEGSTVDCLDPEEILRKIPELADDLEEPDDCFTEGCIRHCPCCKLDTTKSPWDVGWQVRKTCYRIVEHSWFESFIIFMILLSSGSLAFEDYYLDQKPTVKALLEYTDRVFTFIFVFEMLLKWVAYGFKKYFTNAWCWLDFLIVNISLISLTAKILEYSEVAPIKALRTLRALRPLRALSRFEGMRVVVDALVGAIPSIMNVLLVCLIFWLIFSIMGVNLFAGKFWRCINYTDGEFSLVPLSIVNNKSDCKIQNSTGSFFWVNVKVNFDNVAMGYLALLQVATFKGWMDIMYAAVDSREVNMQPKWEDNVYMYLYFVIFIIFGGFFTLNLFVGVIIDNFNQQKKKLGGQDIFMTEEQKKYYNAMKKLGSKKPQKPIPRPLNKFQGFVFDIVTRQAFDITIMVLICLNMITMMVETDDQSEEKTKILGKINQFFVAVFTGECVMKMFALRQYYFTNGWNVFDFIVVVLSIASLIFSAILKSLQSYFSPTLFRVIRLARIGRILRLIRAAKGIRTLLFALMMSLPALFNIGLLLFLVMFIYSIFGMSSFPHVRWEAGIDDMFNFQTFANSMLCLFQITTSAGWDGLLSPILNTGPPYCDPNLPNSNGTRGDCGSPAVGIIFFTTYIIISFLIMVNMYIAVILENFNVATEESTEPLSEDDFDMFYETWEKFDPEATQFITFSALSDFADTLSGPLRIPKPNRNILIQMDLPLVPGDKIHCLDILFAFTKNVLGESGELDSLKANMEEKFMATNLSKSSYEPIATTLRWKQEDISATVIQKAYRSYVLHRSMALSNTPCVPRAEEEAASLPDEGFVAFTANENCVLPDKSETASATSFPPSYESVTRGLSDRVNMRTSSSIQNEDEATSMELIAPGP
T3 sequence (Q9NY72 25-215 partner limits assumed): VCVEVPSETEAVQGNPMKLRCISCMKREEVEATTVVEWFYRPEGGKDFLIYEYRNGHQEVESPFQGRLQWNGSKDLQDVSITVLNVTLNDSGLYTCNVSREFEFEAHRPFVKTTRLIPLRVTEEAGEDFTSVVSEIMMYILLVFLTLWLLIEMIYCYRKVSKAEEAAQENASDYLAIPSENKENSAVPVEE

T1 sequence (P10635 whole entry): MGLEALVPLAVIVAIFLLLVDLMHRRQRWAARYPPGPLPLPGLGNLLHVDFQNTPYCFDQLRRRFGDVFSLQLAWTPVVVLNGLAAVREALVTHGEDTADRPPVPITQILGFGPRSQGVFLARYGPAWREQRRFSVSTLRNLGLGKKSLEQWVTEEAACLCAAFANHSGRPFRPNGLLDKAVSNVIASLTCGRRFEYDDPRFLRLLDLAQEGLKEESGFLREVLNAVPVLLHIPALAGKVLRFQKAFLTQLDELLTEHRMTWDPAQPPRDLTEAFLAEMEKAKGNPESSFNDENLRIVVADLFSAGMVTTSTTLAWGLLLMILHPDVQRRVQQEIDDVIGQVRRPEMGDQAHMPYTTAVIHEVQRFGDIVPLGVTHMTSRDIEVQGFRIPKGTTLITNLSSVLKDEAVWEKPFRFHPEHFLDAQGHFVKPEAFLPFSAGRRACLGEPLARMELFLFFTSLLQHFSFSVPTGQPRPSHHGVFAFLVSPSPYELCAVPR
T2 sequence (P05181 whole entry): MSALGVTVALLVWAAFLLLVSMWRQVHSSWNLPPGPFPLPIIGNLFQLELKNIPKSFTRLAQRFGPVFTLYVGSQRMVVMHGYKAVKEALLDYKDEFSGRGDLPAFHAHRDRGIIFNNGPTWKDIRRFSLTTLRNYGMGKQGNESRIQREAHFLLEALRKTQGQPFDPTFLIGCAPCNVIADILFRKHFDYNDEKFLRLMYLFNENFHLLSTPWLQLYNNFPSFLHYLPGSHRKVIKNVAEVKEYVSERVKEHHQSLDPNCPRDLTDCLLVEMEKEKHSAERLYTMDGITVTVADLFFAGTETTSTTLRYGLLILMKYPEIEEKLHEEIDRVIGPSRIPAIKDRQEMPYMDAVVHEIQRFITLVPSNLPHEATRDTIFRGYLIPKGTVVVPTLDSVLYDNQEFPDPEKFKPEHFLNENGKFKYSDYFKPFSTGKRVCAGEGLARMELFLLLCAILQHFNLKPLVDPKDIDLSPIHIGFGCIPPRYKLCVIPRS

## CCC(CO)NCCOc1c(C)cccc1Cl (stereo not shown) [Compound 4, R,S-2-((2-(2-chloro-6-methylphenoxy)ethyl)amino)butan-1-ol]
BB (non-selective)
  % of control specific binding: 104.6%
Cl- channel (GABA-gated)
  % of control specific binding: 99.6%
GABA (non-selective)
  % of control specific binding: 109.3%
KV channel
  % of control specific binding: 104.2%
P2X
  % of control specific binding: 100.6%
P2Y
  % of control specific binding: 102.2%
PCP
  % of control specific binding: 72.6%
SKCa channel
  % of control specific binding: 90.5%
Frings mice
  Frings mice sound-induced seizures ED50: 6.05 (4.23–8.45) mg/kg
Mice [1]
  Bicuculline-induced seizures ED50: > 70 mg/kg
Mice [2]; female mice
  Rotarod TD50: 40.11 (36.49–42.98) mg/kg
Mice [2]; mice
  Rotarod TD50: 54.99 (52.95–56.94) mg/kg
CYP2D6
  Inhibition type: Mixed/competitive
  Ki: 1400 nM
CYP2D6; 500 µM, substrate at 100.0 µM
  % inhibition of 500 µM concentration: 100 (substrate at 100.0 µM) %
CYP2E1
  Inhibition type: Slight inhibition
CYP2E1; 500 µM, substrate at 500.0 µM
  % inhibition of 500 µM concentration: 17 (substrate at 500.0 µM) %
[3]; @ 200uM
  Max induction (calculated): 2 fold
[3]; RPXR cell line, read-out: EC50 (calculated)
  EC50: 74 µM
[4]
  induction: slight induction

## CCC(CO)NCCOc1c(C)cccc1Cl (stereo not shown) [KM-408, R,S-2-((2-(2-chloro-6-methylphenoxy)ethyl)amino)butan-1-ol hydrochloride]
[5]
  TD50: 64.3 mg/kg
Mice [6]; 10 mg/kg ip
  effect on the thermal pain threshold: no significant effect
Mice [6]; 30 mg/kg ip
  prolongation of nocifensive response: 123%
Mice [6]; 100 mg/kg ip
  prolongation of nocifensive response: 177%
Mice [6]; mice, ip
  hot plate test: active at: 30 mg/kg
[7]; 10 Hz
  IC50: 15.2 µM
[7]; Inactivated state
  IC50: < 10 µM
[7]; Tonic block
  IC50: 44.1 µM
